Reference: patent US20250170130A1, “MODULATORS OF MYC FAMILY PROTO-ONCOGENE PROTEIN” (Nalo Therapeutics, priority 2022, published 2025)
Where two headings read alike, the source gives them in different places.

Experiments:
MycC = biological target: T1, MycC (Homo sapiens, UniProt P01106); experiment: Degradation of MycC protein in L363 cells, JESS/Western blot of lysates; format: cell-based; conditions: L-363, 24 h; for Dmax at 0.5 µM: read-out: % Degradation of MycC (L-363) 24 h, 0.5 μM; for Dmax at 1 µM: read-out: % Degradation of MycC (L-363) 24 h, 1 μM; for Dmax at 3 µM: read-out: % Degradation of MycC (L-363) 24 h, 3 μM; for Dmax at 6 µM: read-out: % Degradation of MycC (L-363) 24 h, 6 μM
T1 construct: endogenous in cells; host or cells: L363
Outline: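 L363 suspension cells were seeded at 1E6 cells per well and exposed to compound (stock 10 mM in DMSO) for 24 hrs. Cells were collected, spun down, rinsed with PBS, lysed in RIPA buffer cocktail on ice, clarified and kept at −80 degrees. Lysate protein was quantified by BCA, and c-myc was measured on JESS by chemiluminescence with tubulin and GAPDH loading controls in the NIR channel.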

MycN = biological target: T2, MycN (Homo sapiens, UniProt P04198); experiment: Degradation of MycN protein in SK-N-BE(2) cells, JESS/Western blot of lysates; format: cell-based; conditions: SKNBE2, 24 h; for Dmax at 0.5 µM: read-out: % Degradation of MycN (SKNBE2) 24 h, 0.5 μM; for Dmax at 1 µM: read-out: % Degradation of MycN (SKNBE2) 24 h, 1 μM; for Dmax at 3 µM: read-out: % Degradation of MycN (SKNBE2) 24 h, 3 μM; for Dmax at 6 µM: read-out: % Degradation of MycN (SKNBE2) 24 h, 6 μM
T2 construct: endogenous in cells; host or cells: SK-N-BE(2)
T2 sequence (P04198 1-464): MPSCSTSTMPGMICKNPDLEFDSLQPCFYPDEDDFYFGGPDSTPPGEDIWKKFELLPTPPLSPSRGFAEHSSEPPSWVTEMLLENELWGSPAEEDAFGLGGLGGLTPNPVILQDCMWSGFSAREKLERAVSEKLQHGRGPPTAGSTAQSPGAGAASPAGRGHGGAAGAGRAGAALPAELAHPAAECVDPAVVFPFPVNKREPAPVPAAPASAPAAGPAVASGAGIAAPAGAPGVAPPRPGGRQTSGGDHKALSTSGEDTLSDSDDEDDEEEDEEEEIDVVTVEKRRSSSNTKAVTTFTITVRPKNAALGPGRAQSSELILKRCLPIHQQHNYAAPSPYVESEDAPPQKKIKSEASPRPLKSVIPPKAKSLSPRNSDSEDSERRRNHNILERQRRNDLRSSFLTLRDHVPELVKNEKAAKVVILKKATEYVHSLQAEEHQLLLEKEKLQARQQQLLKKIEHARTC
Outline: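 SK-N-BE(2) adherent cells (5E5 per well of a 6 well dish) were grown 24 hrs, then exposed to compounds diluted 1 in 20 in media, with DMSO controls, for 24 hrs. Cells were scraped, pelleted, PBS washed and lysed in RIPA buffer cocktail; after BCA protein quantitation, n-myc was detected by chemiluminescence on JESS/Western blot with tubulin and GAPDH loading controls read in the near infra red channel.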

T1 sequence (P01106 whole entry): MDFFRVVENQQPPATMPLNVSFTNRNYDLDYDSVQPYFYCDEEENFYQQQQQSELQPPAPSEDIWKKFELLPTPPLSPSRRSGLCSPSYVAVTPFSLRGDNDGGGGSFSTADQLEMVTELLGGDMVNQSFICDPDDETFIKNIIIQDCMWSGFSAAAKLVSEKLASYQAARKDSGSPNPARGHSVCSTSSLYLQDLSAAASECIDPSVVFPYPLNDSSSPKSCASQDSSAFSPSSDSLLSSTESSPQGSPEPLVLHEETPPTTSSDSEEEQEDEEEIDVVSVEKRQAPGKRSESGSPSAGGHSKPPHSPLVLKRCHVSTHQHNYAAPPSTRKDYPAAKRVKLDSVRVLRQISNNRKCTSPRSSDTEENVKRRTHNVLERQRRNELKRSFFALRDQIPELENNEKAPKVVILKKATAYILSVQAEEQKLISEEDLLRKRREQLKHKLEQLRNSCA

| Compound | Dmax at 0.5 µM (MycC; L-363 cells, 24 h, 0.5 μM) | Dmax at 1 µM (MycC; L-363 cells, 24 h, 1 μM) | Dmax at 3 µM (MycC; L-363 cells, 24 h, 3 μM) | Dmax at 6 µM (MycC; L-363 cells, 24 h, 6 μM) | Dmax at 0.5 µM (MycN; SKNBE2 cells, 24 h, 0.5 μM) | Dmax at 1 µM (MycN; SKNBE2 cells, 24 h, 1 μM) | Dmax at 3 µM (MycN; SKNBE2 cells, 24 h, 3 μM) | Dmax at 6 µM (MycN; SKNBE2 cells, 24 h, 6 μM) | Dmax at 0.5 µM (MycC) | Dmax at 1 µM (MycC) | Dmax at 3 µM (MycC) | Dmax at 6 µM (MycC) | Dmax at 0.5 µM (MycN) | Dmax at 1 µM (MycN) | Dmax at 3 µM (MycN) | Dmax at 6 µM (MycN) |
| --- | --- | --- | --- | --- | --- | --- | --- | --- | --- | --- | --- | --- | --- | --- | --- | --- |
| O=C1c2ccccc2C(=O)N1CC12CC(CN(c3nccc(Nc4cc(C5CC5)[nH]n4)n3)C1)C2 [Compound 126, 2-[[3-[4-[(5-Cyclopropyl-1H-pyrazol-3-yl)amino]pyrimidin-2-yl]-3-azabicyclo[3.1.1]heptan-1-yl]methyl]isoindoline-1,3-dione] | 80 to 100% | 80 to 100% | 80 to 100% | 80 to 100% | 80 to 100% | 80 to 100% | 80 to 100% | 80 to 100% | – | – | – | – | – | – | – | – |
| O=C1c2ccccc2C(=O)N1CC12CC(CN(c3nccc(Nc4cc(C5CCCC5)[nH]n4)n3)C1)C2 [Compound 127, 2-[[3-[4-[(5-Cyclopentyl-1H-pyrazol-3-yl)amino]pyrimidin-2-yl]-3-azabicyclo[3.1.1]heptan-1-yl]methyl]isoindoline-1,3-dione] | – | – | – | – | – | – | – | – | < 20% | 80 to 100% | 80 to 100% | 80 to 100% | 50 to 79% | 80 to 100% | 80 to 100% | 80 to 100% |
| COC1CN(CC23CC(C2)N(c2nccc(Nc4cc(C5CCCC5)[nH]n4)n2)C3)C1 [Compound 177, N-(5-Cyclopentyl-1H-pyrazol-3-yl)-2-[4-[(3-methoxyazetidin-1-yl)methyl]-2-azabicyclo[2.1.1]hexan-2-yl]pyrimidin-4-amine] | < 20% | 20 to 49% | 20 to 49% | 80 to 100% | 20 to 49% | < 20% | 50 to 79% | 50 to 79% | – | – | – | – | – | – | – | – |
| CNC[C@H]1CN(c2nccc(Nc3cc(C4CCCC4)[nH]n3)n2)C[C@H]1F [Compound 181] | – | < 20% | – | 80 to 100% | < 20% | < 20% | 20 to 49% | 80 to 100% | – | – | – | – | – | – | – | – |
| CNCC12CC(C1)N(c1ncc(C)c(Nc3cc(C4CCCC4)[nH]n3)n1)C2 [Compound 182, N-(5-Cyclopentyl-1H-pyrazol-3-yl)-5-methyl-2-[4-(methylaminomethyl)-2-azabicyclo[2.1.1]hexan-2-yl]pyrimidin-4-amine] | – | – | – | 80 to 100% | 20 to 49% | 20 to 49% | 80 to 100% | 80 to 100% | – | – | – | – | – | – | – | – |

Continued, in another order:

| Dmax at 0.5 µM (MycC; L-363 cells, 24 h, 0.5 μM) | Dmax at 1 µM (MycC; L-363 cells, 24 h, 1 μM) | Dmax at 3 µM (MycC; L-363 cells, 24 h, 3 μM) | Dmax at 6 µM (MycC; L-363 cells, 24 h, 6 μM) | Dmax at 0.5 µM (MycN; SKNBE2 cells, 24 h, 0.5 μM) | Dmax at 1 µM (MycN; SKNBE2 cells, 24 h, 1 μM) | Dmax at 3 µM (MycN; SKNBE2 cells, 24 h, 3 μM) | Dmax at 6 µM (MycN; SKNBE2 cells, 24 h, 6 μM) | Compound | Dmax at 0.5 µM (MycC) | Dmax at 1 µM (MycC) | Dmax at 3 µM (MycC) | Dmax at 6 µM (MycC) | Dmax at 0.5 µM (MycN) | Dmax at 1 µM (MycN) | Dmax at 3 µM (MycN) | Dmax at 6 µM (MycN) |
| --- | --- | --- | --- | --- | --- | --- | --- | --- | --- | --- | --- | --- | --- | --- | --- | --- |
| – | – | 80 to 100% | 80 to 100% | 20 to 49% | 50 to 79% | 80 to 100% | 80 to 100% | CNCC12CC(C1)N(c1nc3c(c(Nc4cc(C5CCCC5)[nH]n4)n1)CCC3)C2 [Compound 183, N-(5-Cyclopentyl-1H-pyrazol-3-yl)-2-[4-(methylaminomethyl)-2-azabicyclo[2.1.1]hexan-2-yl]-6,7-dihydro-5H-cyclopenta[d]pyrimidin-4-amine] | – | – | – | – | – | – | – | – |
| < 20% | 20 to 49% | 20 to 49% | 50 to 79% | 20 to 49% | 20 to 49% | 20 to 49% | 50 to 79% | NC[C@H]1CN(c2nccc(Nc3cc(C4CCCC4)[nH]n3)n2)CCO1 [Compound 187, 2-[(2S)-2-(Aminomethyl)morpholin-4-yl]-N-(5-cyclopentyl-1H-pyrazol-3-yl)pyrimidin-4-amine] | – | – | – | – | – | – | – | – |
| – | < 20% | 50 to 79% | 80 to 100% | < 20% | 20 to 49% | 80 to 100% | 80 to 100% | CNC[C@H]1CN(c2nccc(Nc3cc(C4CC4)[nH]n3)n2)C[C@H]1F [Compound 191, N-(5-Cyclopropyl-1H-pyrazol-3-yl)-2-[(3S,4S)-3-fluoro-4-(methylaminomethyl)pyrrolidin-1-yl]pyrimidin-4-amine] | – | – | – | – | – | – | – | – |
